Tests used:
hGPR119 = biological target: T1, hGPR119 (Homo sapiens, UniProt Q8TDV5); assay: In vitro cyclic AMP assay (Cisbio dynamic 2 HTRF kit) in CHO-hGPR119 cells; assay type: cell-based; details: cAMP; for activation at 1 µM: 1 h, compound at 1 μM, 60 min, read-out: Induction (% induction at 1 μM)
T1 construct: expressed in transfected cells; host or cells: CHO
T1 sequence (Q8TDV5 1-335): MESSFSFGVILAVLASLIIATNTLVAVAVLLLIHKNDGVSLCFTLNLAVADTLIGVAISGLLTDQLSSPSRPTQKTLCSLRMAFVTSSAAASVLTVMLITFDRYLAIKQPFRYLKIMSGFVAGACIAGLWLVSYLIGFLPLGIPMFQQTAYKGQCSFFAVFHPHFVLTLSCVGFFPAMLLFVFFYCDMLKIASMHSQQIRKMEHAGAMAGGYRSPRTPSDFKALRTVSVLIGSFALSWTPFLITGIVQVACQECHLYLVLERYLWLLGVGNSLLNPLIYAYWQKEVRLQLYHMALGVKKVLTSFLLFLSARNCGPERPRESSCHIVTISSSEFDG

Male C57BL/6 mice = assay: Oral glucose tolerance test in C57BL/6 mice; assay type: in vivo; details: 3 mpk and 10 mpk, glucose 2 g/kg
Description: (§1) Male C57BL/6 mice (8-10 weeks) were grouped based on basal glucose levels and animals were fasted for 16 hours. Glucose level of each animal was estimated in blood collected from tail vein before animals were dosed orally with 0.5% Tween 80 and 0.5% NaCMC (vehicle control) and compounds at 3 and 10 mpk (n=5). After 30 minutes of compound dosing, blood glucose was again estimated and 2 g/kg/10 ml (20%) of Glucose solution was administered orally to all the animals. Blood glucose was estimated at 15, 30, 60, 90 and 120 minutes time points after glucose administration. Accu-Check active blood glucose meter was utilised for estimation of blood from tail vein.
Glucose reduction observed in animals treated with compounds of present invention is represented in terms of % AUC reduction. A greater glucose reduction in oral glucose tolerance test indicates the compound's efficacy in this rodent species.

Male SD rats = assay: Oral glucose tolerance test in Sprague-Dawley rats; assay type: in vivo; details: 3 mpk and 10 mpk, glucose 2 g/kg
Description: as §1, with “SD rats” for “C57BL/6 mice”
Glucose reduction observed in animals treated with GPR119 agonists is represented in terms of % AUC reduction. A greater glucose reduction in oral glucose tolerance test indicates the compound's efficacy in this rodent species.

Row | activation at 1 µM (hGPR119) [%] | EC50 (hGPR119) [nM] | SMILES | glucose reduction (% AUC reduction) in oral glucose tolerance test (Male C57BL/6 mice) | glucose reduction (% AUC reduction) in oral glucose tolerance test (Male SD rats)
1 | 82 | < 25 | CC(C)c1noc(N2CCC([C@H](C)Oc3nc4ccc(-c5ccc(S(C)(=O)=O)nc5)nc4s3)CC2)n1 [Compound 1082, (S)-3-isopropyl-5-(4-(1-((5-(6-(methylsulfonyl)pyridin-3-yl)thiazolo[5,4-b]pyridin-2-yl)oxy)ethyl)piperidin-1-yl)-1,2,4-oxadiazole] | significant dose dependent glucose reduction | significant dose dependent glucose reduction
2 | 75 | < 25 | CC(C)c1noc(N2CCC([C@H](C)Oc3nc4ccc(-c5cnc(Cl)nc5)nc4s3)CC2)n1 [Compound 1119, (S)-5-(4-(1-((5-(2-chloropyrimidin-5-yl)thiazolo[5,4-b]pyridin-2-yl)oxy)ethyl)piperidin-1-yl)-3-isopropyl-1,2,4-oxadiazole] | significant dose dependent glucose reduction | significant dose dependent glucose reduction
3 | 43 |  | Cc1cc(S(C)(=O)=O)ccc1-c1ccc2nc(O[C@H](C)C3CCN(c4nc(C(C)C)no4)CC3)sc2n1 [Compound 1169, 2-((R)-1-(1-(3-isopropyl-1,2,4-oxadiazol-5-yl)piperidin-4-yl)ethoxy)-5-(2-methyl-4-(methylsulfonyl)phenyl)thiazolo[5,4-b]pyridine] |  | 

Further lines, the molecule ahead of its results:

Row | SMILES | activation at 1 µM (hGPR119) [%] | EC50 (hGPR119) [nM] | glucose reduction (% AUC reduction) in oral glucose tolerance test (Male C57BL/6 mice) | glucose reduction (% AUC reduction) in oral glucose tolerance test (Male SD rats)
4 | CCCc1cnc(N2CCC([C@H](C)Oc3nc4ccc(-c5ccc(S(C)(=O)=O)nc5)nc4s3)CC2)nc1 [Compound 1099, (S)-5-(6-(methylsulfonyl)pyridin-3-yl)-2-(1-(1-(5-propylpyrimidin-2-yl)piperidin-4-yl)ethoxy)thiazolo[5,4-b]pyridine] | 81 | < 25 | significant dose dependent glucose reduction | significant dose dependent glucose reduction
5 | CCc1cnc(N2CCC([C@H](C)Oc3nc4ccc(-c5ccnc(F)c5)nc4s3)CC2)nc1 [Compound 1104, (S)-2-(1-(1-(5-ethylpyrimidin-2-yl)piperidin-4-yl)ethoxy)-5-(2-fluoropyridin-4-yl)thiazolo[5,4-b]pyridine] | 84 | 25 to 50 | significant dose dependent glucose reduction | 
6 | CCc1cnc(N2CCC([C@H](C)Oc3nc4ccc(-c5ccc(S(C)(=O)=O)nc5)nc4s3)CC2)nc1 [Compound 1106, (S)-2-(1-(1-(5-ethylpyrimidin-2-yl)piperidin-4-yl)ethoxy)-5-(6-(methylsulfonyl)pyridin-3-yl)thiazolo[5,4-b]pyridine] | 75 | < 25 | significant dose dependent glucose reduction | significant dose dependent glucose reduction
7 | CC(Oc1nc2ccc(-c3ccc(S(C)(=O)=O)cc3)nc2s1)C1CCN(c2ncc(Cl)cn2)CC1 (centres unmarked) [Compound 1120, 2-(1-(1-(5-chloropyrimidin-2-yl)piperidin-4-yl)ethoxy)-5-(4-(methylsulfonyl)phenyl)thiazolo[5,4-b]pyridine] | 40 |  | significant dose dependent glucose reduction | 
8 | CCc1cnc(N2CCC([C@H](C)Oc3nc4ccc(-c5cnc(Cl)nc5)nc4s3)CC2)nc1 [Compound 1135, 2-((S)-1-(1-(5-ethylpyrimidin-2-yl)piperidin-4-yl)ethoxy)-5-(2-chloropyrimidin-5-yl)thiazolo[5,4-b]pyridine] | 86 | < 25 | significant dose dependent glucose reduction | significant dose dependent glucose reduction

Reference: patent US10526345B2, “Compounds as GPR119 agonists” (Mankind Pharma Ltd., priority 2016, dated 2020)
